Measured values taken from ChEMBL document CHEMBL1139768, “The discovery of potent, selective, and orally bioavailable hNK1 antagonists derived from pyrrolidine” (Bioorg Med Chem Lett, 2007).

Columns and labels:
Gerbillinae [1] = test: Inhibition of GR-73632-induced foot tapping in gerbils at 3 mg/kg, iv after 24 hrs; format: functional; conditions: for Inhibition: 3 mg/kg; for inhibition in vivo at 3 mg/kg: Gerbillinae, iv, 24 h
Gerbillinae [2] = test: Inhibition of GR-73632-induced foot tapping in iv dosed gerbils; format: functional
Gerbillinae [3] = test: Inhibition of GR-73632-induced foot tapping in iv dosed gerbils after 24 hrs; format: functional; conditions: Gerbillinae, iv, 24 h; read-out: ID50 (the source's name)
Gerbillinae [4] = test: Inhibition of GR-73632-induced foot tapping in gerbils at 3 mg/kg, iv; format: functional
Substance-P receptor = Substance-P receptor (Homo sapiens, UniProt P25103); test: Displacement of [125I]-SP from human NK1 receptor expressed in CHO cells
Gerbillinae [5] = test: Inhibition of GR-73632-induced foot tapping in gerbils at 6 mg/kg, iv after 24 hrs; format: functional
Gerbillinae [6] = test: Inhibition of GR-73632-induced foot tapping in gerbils at 1 mg/kg, iv; format: functional

Chain of Substance-P receptor (P25103 whole entry): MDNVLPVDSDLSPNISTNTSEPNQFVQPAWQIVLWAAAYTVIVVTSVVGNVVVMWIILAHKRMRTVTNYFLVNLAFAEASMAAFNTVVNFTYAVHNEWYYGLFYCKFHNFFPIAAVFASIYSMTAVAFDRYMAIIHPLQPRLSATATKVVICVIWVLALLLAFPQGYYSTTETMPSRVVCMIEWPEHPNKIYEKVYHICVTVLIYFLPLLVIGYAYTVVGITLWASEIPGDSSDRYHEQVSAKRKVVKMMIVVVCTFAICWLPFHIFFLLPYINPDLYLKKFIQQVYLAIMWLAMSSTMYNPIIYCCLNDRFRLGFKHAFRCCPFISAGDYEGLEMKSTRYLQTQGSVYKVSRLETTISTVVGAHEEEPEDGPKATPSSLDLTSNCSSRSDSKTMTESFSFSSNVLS

IC50 (Substance-P receptor) [nM]	Compound	inhibition in vivo at 3 mg/kg (Gerbillinae [1]) [%]	other results
0.22	C[C@@H](O[C@@H]1CN(C2=CC(=O)C(O)C2)C[C@H]1c1ccc(F)cc1)c1cc(C(F)(F)F)cc(C(F)(F)F)c1 (single isomer, unassigned; diastereomer A)	–	Inhibition (Gerbillinae [1]): 100%; ID50 (Gerbillinae [2]): 0.5 mg/kg; ED50 (Gerbillinae [3]): 0.7 mg/kg; inhibition in vivo at 3 mg/kg (Gerbillinae [4]): 100%
0.09	CC1CC(N2C[C@@H](O[C@H](C)c3cc(C(F)(F)F)cc(C(F)(F)F)c3)[C@H](c3ccc(F)cc3)C2)=CC1=O (stereo in doubt)	–	Inhibition (Gerbillinae [1]): 2%
0.12	C[C@@H](O[C@@H]1CN(C2=CC(=O)N(C)C2)C[C@H]1c1ccc(F)cc1)c1cc(C(F)(F)F)cc(C(F)(F)F)c1	8	–
0.14	C[C@@H](O[C@@H]1CN(C(=O)NC(C)(C)C)C[C@H]1c1ccc(F)cc1)c1cc(C(F)(F)F)cc(C(F)(F)F)c1	–	inhibition in vivo at 6 mg/kg (Gerbillinae [5]): 6%; inhibition in vivo at 1 mg/kg (Gerbillinae [6]): 28%
0.58	C[C@@H](O[C@@H]1CN(C(=O)NCc2cnn[nH]2)C[C@H]1c1ccc(F)cc1)c1cc(C(F)(F)F)cc(C(F)(F)F)c1	24	–
0.07	CC(=O)N1CCC(C(=O)N2C[C@@H](O[C@H](C)c3cc(C(F)(F)F)cc(C(F)(F)F)c3)[C@H](c3ccc(F)cc3)C2)CC1	50	–
0.11	CC1CC(=O)C=C1N1C[C@@H](O[C@H](C)c2cc(C(F)(F)F)cc(C(F)(F)F)c2)[C@H](c2ccc(F)cc2)C1 (mixture of isomers)	79	–
0.07	CC(=O)N1C[C@@H](O[C@H](C)c2cc(C(F)(F)F)cc(C(F)(F)F)c2)[C@H](c2ccc(F)cc2)C1	–	inhibition in vivo at 6 mg/kg (Gerbillinae [5]): 26%
0.16	C[C@@H](O[C@@H]1CN(C2=CC(=O)OC2)C[C@H]1c1ccc(F)cc1)c1cc(C(F)(F)F)cc(C(F)(F)F)c1	67	–
0.24	C[C@@H](O[C@@H]1CN(C=O)C[C@H]1c1ccc(F)cc1)c1cc(C(F)(F)F)cc(C(F)(F)F)c1	–	–
0.38	C[C@@H](O[C@@H]1CN(C(=O)N(C)C)C[C@H]1c1ccc(F)cc1)c1cc(C(F)(F)F)cc(C(F)(F)F)c1	–	–
0.47	C[C@@H](O[C@@H]1CN(C(=O)N2CCn3c(nnc3C(F)(F)F)C2)C[C@H]1c1ccc(F)cc1)c1cc(C(F)(F)F)cc(C(F)(F)F)c1	66	–
0.16	CC1CC(N2C[C@@H](O[C@H](C)c3cc(C(F)(F)F)cc(C(F)(F)F)c3)[C@H](c3ccc(F)cc3)C2)=CC1=O (single isomer, unassigned; diastereomer A)	–	Inhibition (Gerbillinae [1]): 85%
0.34	C[C@@H](O[C@@H]1CN(C(=O)[C@@H]2COC(=O)N2)C[C@H]1c1ccc(F)cc1)c1cc(C(F)(F)F)cc(C(F)(F)F)c1	13	–
0.09	CCC(=O)N1C[C@@H](O[C@H](C)c2cc(C(F)(F)F)cc(C(F)(F)F)c2)[C@H](c2ccc(F)cc2)C1	–	inhibition in vivo at 6 mg/kg (Gerbillinae [5]): 0%
0.07	C[C@@H](O[C@@H]1CN(C2=CC(=O)CC2)C[C@H]1c1ccccc1)c1cc(C(F)(F)F)cc(C(F)(F)F)c1	100	ED50 (Gerbillinae [2]; Gerbillinae, iv, read-out: ID50 (the source's name)): 0.9 mg/kg; ED50 (Gerbillinae [3]): 1.1 mg/kg; inhibition in vivo at 3 mg/kg (Gerbillinae [4]): 100%
